Laboratory results reported in article PMC9030833, “Molecular Modeling and Experimental Evaluation of Non-Chiral Components of Bergamot Essential Oil with Inhibitory Activity against Human Monoamine Oxidases” (Molecules, 2022).

How the values were obtained:
hMAO-B = target: T1, hMAO-B (Homo sapiens, UniProt P27338); test: In vitro hMAO-B inhibition, spectrophotometric Kynuramine deamination assay; format: biochemical
T1 construct: purchased Sigma-Aldrich; host or cells: insect cells (BTI-TN-5B1-4), recombinant baculovirus
T1 sequence (P27338 1-520): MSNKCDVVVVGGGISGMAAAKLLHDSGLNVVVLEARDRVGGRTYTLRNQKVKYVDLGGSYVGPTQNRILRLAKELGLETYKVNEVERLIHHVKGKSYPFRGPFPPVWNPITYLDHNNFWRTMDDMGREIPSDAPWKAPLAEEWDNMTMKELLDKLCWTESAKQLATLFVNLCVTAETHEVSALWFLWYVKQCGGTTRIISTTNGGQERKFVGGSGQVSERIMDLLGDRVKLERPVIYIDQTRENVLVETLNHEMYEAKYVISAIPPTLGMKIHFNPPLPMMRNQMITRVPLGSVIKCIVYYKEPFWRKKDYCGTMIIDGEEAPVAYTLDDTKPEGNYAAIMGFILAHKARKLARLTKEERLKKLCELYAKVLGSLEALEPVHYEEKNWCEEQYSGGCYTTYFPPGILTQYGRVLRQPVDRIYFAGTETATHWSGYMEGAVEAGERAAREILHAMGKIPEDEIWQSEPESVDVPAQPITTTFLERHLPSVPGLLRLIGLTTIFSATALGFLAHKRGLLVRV
Experimental: (§1) To this end, a spectrophotometric method based on the oxidative deamination of Kynuramine by recombinant hMAO-A or hMAO-B was used.
(§2) The inhibitory activity of Bergamottin on hMAO-A and hMAO-B was studied using an experimental protocol described elsewhere. The hMAO inhibitory activity was assessed in microsomal MAO isoforms prepared from insect cells (BTI-TN-5B1-4) infected with recombinant baculovirus containing cDNA inserts for hMAO-A or hMAO-B, and by measuring the enzymatic conversion rates of Kynuramine into 4-hydroxyquinoline. […] All assays were performed in sodium phosphate buffer solution 50 mM pH 7.4.
(§3) Then, the reaction was started with the addition of hMAO-A or hMAO-B. Initial velocities were determined spectrophotometrically in a microplate reader (BioTek Synergy HT from BioTek Instruments, Winooski, VT, USA) at 37 °C by measuring the formation of 4-hydroxyquinoline at 316 nm, over a period of at least 30 min (interval of 1 min). Data were analyzed using GraphPad PRISM version 6 for Windows (GraphPad Software®, San Diego, CA, USA). […] IC50 values were obtained from dose–response curves and were expressed as mean ± standard deviation. IC50 values were determined from at least three independent experiments, each performed in triplicate. […]

hMAO-A = target: T2, hMAO-A (Homo sapiens, UniProt P21397); test: In vitro hMAO-A inhibition, spectrophotometric Kynuramine deamination assay; format: biochemical
T2 construct: purchased Sigma-Aldrich; host or cells: insect cells (BTI-TN-5B1-4), recombinant baculovirus
T2 sequence (P21397 1-527): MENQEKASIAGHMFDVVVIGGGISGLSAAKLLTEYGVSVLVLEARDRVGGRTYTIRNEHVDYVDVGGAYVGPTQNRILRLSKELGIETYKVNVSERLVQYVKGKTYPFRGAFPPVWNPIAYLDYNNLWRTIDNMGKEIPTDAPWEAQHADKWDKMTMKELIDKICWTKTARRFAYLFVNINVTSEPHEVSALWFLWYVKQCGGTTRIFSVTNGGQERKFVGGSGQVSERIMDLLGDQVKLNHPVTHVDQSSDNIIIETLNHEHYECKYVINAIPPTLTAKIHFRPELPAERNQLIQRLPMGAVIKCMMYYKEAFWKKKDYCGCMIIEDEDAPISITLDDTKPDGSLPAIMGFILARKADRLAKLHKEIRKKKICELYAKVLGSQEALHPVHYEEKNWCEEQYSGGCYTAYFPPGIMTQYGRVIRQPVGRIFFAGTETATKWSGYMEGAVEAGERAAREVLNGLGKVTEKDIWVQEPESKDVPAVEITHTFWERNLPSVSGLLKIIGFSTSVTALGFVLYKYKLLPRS
Experimental: as §1, §2, §3

IC50 (hMAO-B; recombinant hMAO-B, Kynuramine substrate): 0.291 µM
SI (selectivity index) (hMAO-B; selectivity for hMAO-B over hMAO-A from the IC50 values): 31.8
IC50 (hMAO-A): 9.25 ± 0.91 µM
Compound: CC(C)=CCC/C(C)=C/COc1c2ccoc2cc2oc(=O)ccc12 [Bergamottin]
